Measurements taken from BindingDB's records for doi:10.1016/j.bmcl.2008.08.079 (Abbott Laboratories, 2008).

Tests used:
[1] = biological target: Serine/threonine-protein kinase pim-2 (Homo sapiens, UniProt Q9P1W9); test: Pim Kinase Assay; conditions: pH 7.5; 22 °C
Procedure: (§1) Assays were conducted in 384-well v-bottom polypropylene plates. Test compound was mixed with Pim and biotinylated peptide substrate, followed by immediate initiation with [gamma-33 P]ATP. Reactions were quenched and transferred to 384-well streptavidin-coated plates. After incubation, radioactivity was counted on a TopCount Scintillation Plate Reader (Packard).

[2] = biological target: Serine/threonine-protein kinase pim-1 (Homo sapiens, UniProt P11309); test: Pim Kinase Assay; conditions: pH 7.5; 22 °C
Procedure: as §1

Sequence of Serine/threonine-protein kinase pim-2 (Q9P1W9 whole entry): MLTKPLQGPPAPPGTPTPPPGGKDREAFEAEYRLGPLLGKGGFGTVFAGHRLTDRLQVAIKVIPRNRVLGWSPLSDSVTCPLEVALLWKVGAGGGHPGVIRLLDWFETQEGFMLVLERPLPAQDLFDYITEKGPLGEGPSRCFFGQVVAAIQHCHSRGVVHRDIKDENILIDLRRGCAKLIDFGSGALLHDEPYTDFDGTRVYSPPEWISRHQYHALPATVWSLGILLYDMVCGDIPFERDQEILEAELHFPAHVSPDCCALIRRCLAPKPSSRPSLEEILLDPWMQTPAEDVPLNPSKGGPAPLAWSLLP
Sequence of Serine/threonine-protein kinase pim-1 (P11309 whole entry): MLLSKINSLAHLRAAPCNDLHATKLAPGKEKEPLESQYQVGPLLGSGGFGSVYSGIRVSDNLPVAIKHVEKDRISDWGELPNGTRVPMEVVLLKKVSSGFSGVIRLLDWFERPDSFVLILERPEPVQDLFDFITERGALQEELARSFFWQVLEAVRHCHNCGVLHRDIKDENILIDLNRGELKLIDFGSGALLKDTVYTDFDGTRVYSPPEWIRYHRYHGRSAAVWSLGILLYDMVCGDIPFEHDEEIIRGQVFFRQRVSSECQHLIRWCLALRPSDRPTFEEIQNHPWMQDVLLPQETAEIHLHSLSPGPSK

| SMILES | Ki [1] [nM] | Ki [2] [nM] |
| --- | --- | --- |
| O=c1onc2n(Cc3ccccc3)c3cc(Cl)c(F)cc3c(O)c1-2 [9-benzyl-7-chloro-6-fluoro-1H,3H,4H,9H-quinolino[2,3-c][1,2]oxazole-3,4-dione] | 558 | 36.5 |
| CCn1c2cc(Cl)c(F)cc2c(=O)c2c(=O)on(C)c21 [7-chloro-9-ethyl-6-fluoro-1-methyl-1H,3H,4H,9H-quinolino[2,3-c][1,2]oxazole-3,4-dione] | > 1420 | 50.1 |
| CCCCn1c2noc(=O)c-2c(O)c2cc(F)c(Cl)cc21 [9-butyl-7-chloro-6-fluoro-1H,3H,4H,9H-quinolino[2,3-c][1,2]oxazole-3,4-dione] | 165 | 15 |
| CCn1c2noc(=O)c-2c(O)c2cc(O)c(Cl)cc21 [7-chloro-9-ethyl-6-hydroxy-1H,3H,4H,9H-quinolino[2,3-c][1,2]oxazole-3,4-dione] | 43.5 |  |
| CC(C)n1c2noc(=O)c-2c(O)c2cc(F)c(Cl)cc21 [7-chloro-6-fluoro-9-(propan-2-yl)-1H,3H,4H,9H-quinolino[2,3-c][1,2]oxazole-3,4-dione] | 62.8 | 12.3 |
| CCn1c2noc(=O)c-2c(O)c2cc(OC)c(Cl)cc21 [7-chloro-9-ethyl-6-methoxy-1H,3H,4H,9H-quinolino[2,3-c][1,2]oxazole-3,4-dione] | > 1420 | 2700 |
